Test results as given in patent US7083779B2 (Council of Scientific and Industrial Research, priority 2003, dated 2006).

Columns and labels:
[1] = system: P. falciparum; conditions: cited from earlier work
[2] = system: cultured fibroblasts

SMILES | LC50 against P. falciparum [1] [µg/mL] | Reversibility of effect on cultured fibroblasts (cell viability and protein quantification) [2] | Cytotoxicity (cell viability) ([2]; 0.001 %)
CC(=O)O[C@@H]1C[C@H]2C(C)(C)C(=O)C=C[C@]2(C)[C@H]2CC[C@@]3(C)[C@H](c4ccoc4)C(=O)[C@H]4O[C@]43[C@@]21C [nimbinin] | 0.72 to 1.74 | – | –
CC(=O)O[C@@H]1C[C@H]2C(C)(C)C(=O)CC[C@]2(C)[C@H]2CC[C@@]3(C)[C@H](c4ccoc4)OC(=O)[C@H]4O[C@]43[C@@]21C [dihydrogedunin] | 0.72 to 1.74 | – | –
[H]/N=C(\N/C(=N/[H])NCCCCCCNC(=N)NC(=N)Nc1ccc(Cl)cc1)Nc1ccc(Cl)cc1 [Chlorhexidine] | – | damage the cells irreversibly | cytotoxic even at 0.001%
